EP0904269B1, “3,4-DIARYL-2-HYDROXY-2,5-DIHYDROFURANS AS PRODRUGS TO COX-2 INHIBITORS” (Merck Frosst Canada & Co., priority 1995, dated 1997)

System: Rat Paw Edema
Assay: Rat paw edema assay (carrageenan-induced)
Format: in vivo, Male Sprague-Dawley rats
Conditions: dose of prodrug, po, required to reduce edema formation by 50% as compared to the vehicle control
Method: Male Sprague-Dawley rats (150-200 g) are fasted overnight and are given, po, either vehicle (1% methocel or 5% Tween 80) or a test compound. One hr later, a line is drawn using a permanent marker at the level above the ankle in one hind paw to define the area of the paw to be monitored. The paw volume (V0) is measured using a plethysmometer (Ugo-Basile, Italy) based on the principle of water displacement. The animals are then injected subplantarly with 50 µl of 1% carrageenan solution in saline (FMC Corp, Maine) into the paw using an insulin syringe with a 25-gauge needle (i.e. 500 µg carrageenan per paw). Three hr later, the paw volume (V3) is measured and the increases in paw volume (V3 - VO) are calculated. The animals are sacrificed by CO2 asphyxiation and the absence or presence of stomach lesions scored. Data is compared with the vehicle-control values and percent inhibition calculated. All treatment groups are coded to eliminate observer bias.
Compounds of the present invention are prodrugs of inhibitors of COX-2 and are thereby useful in the treatment of COX-2 mediated diseases as enumerated above. The extent of conversion of these compounds to the active COX-2 inhibitors may be seen in the representative results shown below along with their antiinflammatory activity. The plasma levels indicated are the maximum rat plasma concentrations of the active COX-2 inhibitor observed when the rat was treated with a 20 mg/kg oral dose of the indicated prodrug. The ED50 values in the rat paw edema assay represent the dose of prodrug required to reduce edema formation by 50% as compared to the vehicle control.

SMILES | ED50
CC(C)OC1=C(c2ccc(S(C)(=O)=O)cc2)C(C)(C)OC1O (centres unmarked) [Example 39, 3-Isopropoxy-5,5-dimethyl-4-(4-methylsulfonylphenyl)-2,5-dihydrofuran-2-ol] | 2.7 mg/kg
CC1(C)OC(O)C(c2cc(F)cc(F)c2)=C1c1ccc(S(C)(=O)=O)cc1 (centres unmarked) [Example 2, 3-(3,5-Difluorophenyl)-5,5-dimethyl-2-hydroxy-4-(4-(methylsulfonyl)phenyl)-2,5-dihydrofuran] | 0.7 mg/kg
CC(OC1=C(c2ccc(S(C)(=O)=O)cc2)C(C)(C)OC1O)C1CC1 (centres unmarked) [Example 44, 3-(1-Cyclopropylethoxy)-5,5-dimethyl-4-(4-methylsulfonylphenyl)-2,5-dihydrofuran-2-ol] | 1.6 mg/kg
CC1(C)OC(O)C(c2cccc(F)c2)=C1c1ccc(S(C)(=O)=O)cc1 (centres unmarked) [Example 1, 5,5-Dimethyl-3-(3-fluorophenyl)-2-hydroxy-4-(4-methylsulfonylphenyl)-2.5-dihydrofuran] | 2.5 mg/kg
CS(=O)(=O)c1ccc(C2=C(c3ccccc3)C(O)CC2)cc1 (centres unmarked) [Example 13, 3-(4-(Methylsulfonyl)phenyl)-2-phenyl-2-cyclopenten-1-ol] | 0.9 mg/kg
CC1(C)OC(O)C(Oc2ccc(F)c(F)c2)=C1c1ccc(S(C)(=O)=O)cc1 (centres unmarked) [Example 10, 5.5-Dimethyl-3-(3,4-difluorophenoxy)-2-hydroxy-4-(4-(methylsulfonyl)phenyl)-2.5-dihydrofuran] | 0.09 mg/kg
CC1(C)OC(O)C(Oc2cccc(F)c2)=C1c1ccc(S(C)(=O)=O)cc1 (centres unmarked) [Example 9, 5.5-Dimethyl-3-(3-fluorophenoxy)-2-hydroxy-4-(4-(methylsulfonyl)phenyl)-2,5-dihydrofuran] | 1.7 mg/kg
CS(=O)(=O)c1ccc(C2=C(c3cccnc3)C(O)CC2)cc1 (centres unmarked) [Example 40, 3-(4-Methylsulfonylphenyl)-2-(3-pyridinyl)-2-cyclopenten-1-ol] | 1.5 mg/kg
